Reference: patent publication US20220257595A1, “MACITENTAN FOR USE IN TREATING PORTOPULMONARY HYPERTENSION” (ACTELION PHARMACEUTICALS LTD, priority 2019, published 2022)

What was measured:
patients with PoPH [1] = test: PORTICO: serum NT-proBNP (incl. post-hoc 300 ng/L threshold shift); assay type: in vivo, human
Method: (v) Serum NT-proBNP: A blood sample was drawn at Baseline (Visit 2/Randomization), EOT-DB, and/or EOT-OL (whichever came last) for the analysis of serum NT-proBNP. Serum NT-proBNP samples were shipped to the central laboratory on dry ice as soon as possible after the blood sample had been drawn or stored frozen at −20° C. (−4° F.)±2° C. (±3.6° F.) until the shipment.
Statistical analysis: The change from baseline to Week 12 in mRAP, mPAP, cardiac index, TPR and SVO2 were analyzed on the FAS (with imputation) using an ANCOVA with factors for treatment group, background PAH-specific therapy at baseline (Yes/No as per IXRS, randomization stratification factor), region (Europe/North America/Latin America as per IXRS, randomization stratification factor) and a covariate for baseline corresponding variable. Other RHC variables are listed only. WHO FC is summarized on the FAS (with imputation) by time point and treatment group using frequency tables. […] Worsening was analyzed using a logistic regression model (exact) with covariates for treatment group, background PAH-specific therapy at baseline (Yes/No as per IXRS, randomization stratification factor) and region (Europe/North America/Latin America as per IXRS, randomization stratification factor). […] Change from baseline in 6MWD (up to Week 12) was analyzed using a mixed-effect model repeated measure (MMRM) with factors for treatment group, time point, treatment by time interaction, background PAH-specific therapy at baseline (Yes/No as per IXRS, randomization stratification factor) and region (Europe/North America/Latin America as per IXRS, randomization stratification factor), and covariates for baseline 6MWD and WHO FC. […] The ratio versus baseline in NT-proBNP was log-transformed and analyzed using an ANCOVA with covariates for treatment group, background PAH-specific therapy at baseline (Yes/No as per IXRS, randomization stratification factor), region (Europe/North America/Latin America as per IXRS, randomization stratification factor) and baseline log NT-proBNP. […]

patients with PoPH [2] = test: Post-hoc: liver transplant perioperative risk classification (mPAP categories); assay type: in vivo, human; conditions: for LT perioperative risk classification: Week 12 High risk (mPAP => 45 mm Hg): 10 mg, N = 43
Method: Post-Hoc, Exploratory Criteria: • Proportion of patients with NT-proBNP decrease from above 300 ng/L to below this threshold • Odds ratio for improvement to a more favorable liver transplant perioperative risk category • Odds ratio for becoming eligible for the MELD exception • Odds ratio for improvement to a more favorable waitlist mortality risk category
Risk categories related to liver transplant (transplant perioperative risk classification, MELD exception eligibility and waitlist mortality risk) were analyzed descriptively by treatment group using shift tables from baseline to Week 12 with categories as defined in Example 1.
LT perioperative risk classification, MELD exception eligibility, and waitlist mortality analyses were performed after the database lock and SDTMs delivery for the Double-Blind period. Number (%) of patients in following categories were summarized and presented in shift tables. The estimated odds ratio for risk improvement and corresponding 95% confidence intervals were obtained from an exact logistic regression (macitentan vs placebo) with factors for treatment and risk category at baseline.
The presence of moderate to severe pulmonary hypertension in patients with liver disease increases the risk of graft dysfunction and cardiopulmonary-related mortality after orthotopic liver transplant. According to the International Liver Transplant Society (ILTS) Practice Guidelines, liver transplant is conditional to appropriate hemodynamics due to the risk of cardiopulmonary-related mortality after liver transplant: • mPAP ≥45 mmHg is an absolute contraindication to liver transplant (high risk) as it is associated with 100% cardiopulmonary mortality • mPAP ≥35 mmHg and <45 mmHg, with increased PVR is associated with increased mortality (intermediate risk) of about 50%
mPAP <35 mmHg is associated with a low risk for liver transplant • LT perioperative risk classification

`CCCNS(=O)(=O)Nc1ncnc(OCCOc2ncc(Br)cn2)c1-c1ccc(Br)cc1` [macitentan, N-[5-(4-Bromophenyl)-6-[2-[(5-bromo-2-pyrimidinyl)oxy]ethoxy]-4-pyrimidinyl]-N′-propylsulfamide] was tested, and the “Patients with NT-proBNP above 300 ng/L at baseline decreasing to below threshold after 12 weeks” value (patients with PoPH [1]; 6 of 16 macitentan patients, FAS no imputation, post-hoc) was 37.5%, the “Geometric mean ratio of Week 12 to baseline NT-proBNP” value (patients with PoPH [1]; FAS with imputation, macitentan group) was 0.86 and the “NT pro-BNP shift: Week 12 Category 2” value (patients with PoPH [1]; Total, Full analysis set, 10 mg, N = 43) was 9 n (%). The “LT perioperative risk classification: Week 12 High risk (mPAP => 45 mm Hg)” value (patients with PoPH [2]; Baseline Intermediate risk (n = 16)) was 0 n (%), the “LT perioperative risk classification: Week 12 High risk (mPAP => 45 mm Hg)” value (patients with PoPH [2]; Baseline Low risk (n = 2)) was 0 n (%) and the “Odds to change to a more favorable LT perioperative risk category, macitentan vs placebo” value (patients with PoPH [2]; Week 12, exact logistic regression) was 3.73 times. The “Patients improving to a more favorable LT perioperative risk category” value (patients with PoPH [2]; after 12 weeks, FAS no imputation, 18 patients) was 41.9% and the “LT perioperative risk: Between-treatment odds ratio for improvement, OR” value (patients with PoPH [2]; macitentan vs placebo, exact logistic regression, 95% CI 1.175, 13.401, p-value 0.0224) was 3.732.
